B1: metrnl (protein, UniProt Q641Q3 46-311, looked up)
Meteorin-like protein: QYSSDRCSWKGSGLTHEAHRKEVEQVYLRCAAGAVEWMYPTGALIVNLRPNTFSPARHLTVCIRSFTDSSGANIYLEKTGELRLLVPDGDGRPGRVQCFGLEQGGLFVEATPQQDIGRRTTGFQYELVRRHRASDLHELSAPCRPCSDTEVLLAVCTSDFAVRGSIQQVTHEPERQDSAIHLRVSRLYRQKSRVFEPVPEGDGHWQGRVRTLLECGVRPGHGDFLFTGHMHFGEARLGCAPRFKDFQRMYRDAQERGLNPCEVGTD
notes: specific myokine

Legend:
[1] = system: pancreatic ductal carcinoma PDX model; assay: in vivo validation of CPT on pancreatic ductal carcinoma PDX model; conditions: co-treatment gemcitabine 10 mg/kg + 9-ING-41 40 mg/kg, i.p. 3x a week
[2] = system: HCT116 colon cancer cells; assay: PWS imaging of HCT116 cells after chemotherapy, CPT and their combination; type: cell-based; conditions: celecoxib (CPT) added to oxaliplatin
cancer cells = assay: live cell PWS (D) and transcriptional heterogeneity of cancer cells surviving chemotherapy; type: cell-based
Description: FIGS. 2A-2K. Four aspects of transcriptional heterogeneity regulation by chromatin D: (a) diversity (the relative dynamic range of expression; HT29 cells, 2445 genes), (b) intercellular heterogeneity, (c) intranetwork heterogeneity, and (d) amplification of changes in expression (ratio of changes in the expression rate of 800 significant genes induced by paclitaxel in A2780 ovarian cancer cells for high- vs. low-D cells). Predictions of a computational transcriptomics (multiscale analysis, MSA) model are shown as blue curves. (e) Chemotherapy leads to the survival of cancer cells with high D (middle-top panel; live cell PWS images of D; arrows: nuclei) and transcriptional (right-top) heterogeneity, while CPT agents (digoxin) decrease both (bottom). Left panels: MSA simulations of chromatin packing show a CPT-induced transition from a network to polymer-like packing. (f) Cells surviving chemotherapy treatment (paclitaxel (PAC); 48 h, A2780) have a larger global transcriptional space (single cell sequencing) while CPT (celecoxib) reduces it. (g) PWS images of HCT116 colon cancer cells after treatment with chemotherapy (oxaliplatin), CPT (celecoxib), and their combination. The addition of a CPT leads to >98% cancer cell death. […] Key: docetaxel (D), paclitaxel (P), oxaliplatin (0), digoxin (D), celecoxib (C), VPA (V), aspirin (A). […]

HT29 = assay: growth of HT29 cells treated with myostatin or metrnl and oxaliplatin; type: cell-based, human; conditions: for growth of colorectal cancer cell line: HT29, alone; for effect in combination with oxaliplatin: HT29, combination with oxaliplatin
Description: FIGS. 6A-6C. Treatment of colon cancer cells lines with myokines and oxaliplatin. (a) HCT116 cells treated with myokines, oxaplatin, and combination of myokines and oxaplatin. (b) H29 cells treated with oxoplatin (ox), myostatin, and a combination of myostatin and oxaplatin. (c) H29 cells treated with oxoplatin (ox), metrnl, and a combination of metrnl and oxaplatin.
Next, we treated colorectal cancer cell lines HCT116 and HT29 with a myokine fraction and the specific myokines myostain and metrnl either by themselves or in combination with oxaliplatin. […] (See FIG. 6).

Row | Molecule | growth of colorectal cancer cell line (HT29) | effect in combination with oxaliplatin (HT29) | further results
1 | Cn1cc(C2=C(c3coc4ccc(F)cc34)C(=O)NC2=O)c2cc3c(cc21)OCO3 [9-ING-41] | – | – | tumor volume relative to initial size [1]: < 4 % of the initial size
2 | Cc1ccc(-c2cc(C(F)(F)F)nn2-c2ccc(S(N)(=O)=O)cc2)cc1 [celecoxib] | – | – | cancer cell death [2]: > 98%
3 | C[C@H]1O[C@@H](O[C@H]2[C@@H](O)C[C@H](O[C@H]3[C@@H](O)C[C@H](O[C@H]4CC[C@@]5(C)[C@H](CC[C@@H]6[C@@H]5C[C@@H](O)[C@]5(C)[C@@H](C7=CC(=O)OC7)CC[C@]65O)C4)O[C@@H]3C)O[C@@H]2C)C[C@H](O)[C@@H]1O [digoxin] | – | – | chromatin packing scaling D (cancer cells): decrease both
4 | myostatin [myostain] | reduced the growth | synergistic effect | –
5 | B1 | reduced the growth | synergistic effect | –
